We go through 26 compounds from patent publication US20250288584A1, “COMBINATIONS COMPRISING POSITIVE ALLOSTERIC MODULATORS OR ORTHOSTERIC AGONISTS OF METABOTROPIC GLUTAMATERGIC RECEPTOR SUBTYPE 2 AND THEIR USE” (JANSSEN PHARMACEUTICA NV, priority 2014, published 2025).

Like-named read-outs stand apart in the source and are kept apart here.

The target in this test is T1, human mGlu2 receptor (Homo sapiens, UniProt Q14416).
T1 construct: expressed in transfected cells; host or cells: CHO cells
The test is described as follows: [35S]GTPγS binding assay, mGluR2 PAM. To be noted: for Emax: EC20 glutamate; for GTPγS-hmGluR2 PAM pEC50 / EC50: in presence of EC20 glutamate; for EC50: read-out: GTPγS-hmGluR2 PAM pEC50 (converted). The format is biochemical. On the procedure: The [^35S]GTPγS binding assay is a functional membrane-based assay used to study G-protein coupled receptor (GPCR) function whereby incorporation of a non-hydrolysable form of GTP, [^35S]GTPγS (guanosine 5′-triphosphate, labelled with […] ^35S), is measured.
Cells were then collected by scraping in PBS and cell suspension was centrifuged (10 min at 4000 RPM in benchtop centrifuge). Supernatant was discarded and pellet gently resuspended in 50 mM Tris-HCl, pH 7.4 by mixing with a vortex and pipetting up and down. The suspension was centrifuged at 16,000 RPM (Sorvall RC-5C plus rotor SS-34) for 10 minutes and the supernatant discarded. The pellet was homogenized in 5 mM Tris-HCl, pH 7.4 using an ultra-turrax homogenizer and centrifuged again (18,000 RPM, 20 min, 4° C.). The final pellet was resuspended in 50 mM Tris-HCl, pH 7.4 and stored at-80° C. in appropriate aliquots before use. Protein concentration was determined by the Bradford method (Bio-Rad, USA) with bovine serum albumin as standard.
Measurement of mGluR2 positive allosteric modulatory activity of test compounds was performed as follows. Test compounds and glutamate were diluted in assay buffer containing 10 mM HEPES acid, 10 mM HEPES salt, pH 7.4, 100 mM NaCl, 3 mM MgCl2 and 10 μM GDP. Human mGlu2 receptor-containing membranes were thawed on ice and diluted in assay buffer supplemented with 14 μg/ml saponin. Membranes were pre-incubated with compound alone or together with a predefined (˜EC20) concentration of glutamate (PAM assay) for 30 min at 30° C. After addition of [^35S] GTPγS (f.c. 0.1 nM), assay mixtures were shaken briefly and further incubated to allow [^35S] GTPγS incorporation on activation (30 minutes, 30° C.). Final assay mixtures contained 7 μg of membrane protein in 10 mM HEPES acid, 10 mM HEPES salt, pH 7.4, 100 mM NaCl, 3 mM MgCl2, 10 µM GDP and 2 μg/ml saponin. Total reaction volume was 200 μl. Reactions were terminated by rapid filtration through Unifilter-96 GF/B plates (Perkin Elmer, Massachusetts, USA) using a 96-well filtermate universal harvester. Filters were washed 6 times with ice-cold 10 mM NaH2PO4/10 mM Na2HPO4, pH 7.4. Filters were then air-dried, and 40 μl of liquid scintillation cocktail (Microscint-O) was added to each well. Membrane-bound radioactivity was counted in a Microplate Scintillation and Luminescence Counter from Perkin Elmer.
The concentration-response curves of representative compounds of the present invention-obtained in the presence of EC20 of mGluR2 agonist glutamate to determine positive allosteric modulation (PAM)—were generated using the Lexis software interface (developed at J&J). Data were calculated as % of the control glutamate response, defined as the maximal response that is generated upon addition of glutamate alone. Sigmoid concentration-response curves plotting these percentages versus the log concentration of the test compound were analyzed using non-linear regression analysis. The concentration producing half-maximal effect is then calculated as EC50. The pEC50 values below were calculated as the −log EC50, when the EC50 is expressed in M. Emax is defined as relative maximal effect (i.e. maximal % effect relative to the control glutamate response).
A general note: Binding of GTPγS marks nucleotide exchange on a G protein.

Setting [1] is: maximal % effect relative to control glutamate response, read-out: GTPγS-hmGluR2 PAM Emax.

T1 sequence (Q14416 19-872): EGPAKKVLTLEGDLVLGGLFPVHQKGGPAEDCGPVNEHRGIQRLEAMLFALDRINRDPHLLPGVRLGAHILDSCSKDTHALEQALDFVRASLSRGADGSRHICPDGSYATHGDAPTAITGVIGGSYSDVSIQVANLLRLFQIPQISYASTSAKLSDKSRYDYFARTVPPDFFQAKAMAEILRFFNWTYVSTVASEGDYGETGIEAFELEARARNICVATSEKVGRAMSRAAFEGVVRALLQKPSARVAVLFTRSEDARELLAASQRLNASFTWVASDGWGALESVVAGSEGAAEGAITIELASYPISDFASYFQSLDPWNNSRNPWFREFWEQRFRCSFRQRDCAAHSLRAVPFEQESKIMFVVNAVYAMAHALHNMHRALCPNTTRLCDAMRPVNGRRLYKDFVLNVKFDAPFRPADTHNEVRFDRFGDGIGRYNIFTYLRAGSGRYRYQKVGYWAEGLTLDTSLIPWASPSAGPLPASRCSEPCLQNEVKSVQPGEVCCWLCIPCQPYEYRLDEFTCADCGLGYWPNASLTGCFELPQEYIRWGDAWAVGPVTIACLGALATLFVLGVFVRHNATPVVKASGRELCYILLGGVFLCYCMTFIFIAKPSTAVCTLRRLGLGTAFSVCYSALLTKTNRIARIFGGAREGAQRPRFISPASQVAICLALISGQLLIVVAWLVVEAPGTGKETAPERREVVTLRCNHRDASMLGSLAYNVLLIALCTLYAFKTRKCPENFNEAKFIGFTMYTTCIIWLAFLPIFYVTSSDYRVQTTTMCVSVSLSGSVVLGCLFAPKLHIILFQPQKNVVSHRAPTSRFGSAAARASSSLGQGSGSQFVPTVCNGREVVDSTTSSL

By Emax is commonly meant the size of the effect at its maximum, as opposed to the concentration needed. For the compound `C[C@H](Oc1c(F)cccc1F)c1ccn2c(CC3CC3)nnc2c1C(F)(F)F` [Co. No. 11-b, 3-(Cyclopropylmethyl)-7-[(1S)-1-(2,6-difluorophenoxy)ethyl]-8-(trifluoromethyl)[1,2,4]triazolo[4,3-a]pyridine], under setting [1], the Emax came to 239%.

In the case of `O=c1c(Cl)c(N2CCC(c3ccccc3F)CC2)ccn1CC1CC1` [Co. No. 12-a], the “GTPγS-hmGluR2 PAM pEC50” value amounted to 7.03. Moreover, the Emax under setting [1] came out at 242%.

Regarding `COc1cc(F)ccc1O[C@@H](C)c1ccn2c(CC3CC3)nnc2c1C(F)(F)F` [Co. No. 12-b, 3-(Cyclopropylmethyl)-7-[(1S)-1-(4-fluoro-2-methoxyphenoxy)ethyl]-8-(trifluoromethyl)[1,2,4]triazolo[4,3-a]pyridine], under setting [1], the Emax came out at 178%.

Turning to `CC1(C)OC2(CCN(c3ccn4c(CC(F)(F)F)nnc4c3Cl)CC2)c2ccccc21` [Co. No. 12], under setting [1], the Emax turned out to be 261%.

Take `O=c1c(Cl)c(N2CCC(c3ccc(N4CCOCC4)cc3)CC2)ccn1CC1CC1` [Co. No. 13-a]: the EC50 is 214 nM. In addition, under setting [1], the Emax amounted to 212%.

Turning to `Cc1ccc(O[C@@H](C)c2ccn3c(CC4CC4)nnc3c2C(F)(F)F)c(Cl)c1` [Co. No. 13-b, 7-[(1S)-1-(2-Chloro-4-methylphenoxy)ethyl]-3-(cyclopropylmethyl)-8-(trifluoromethyl)[1,2,4]triazolo[4,3-a]pyridine], the Emax under setting [1] is 280%.

On to `Fc1cnc(N2CCN(Cc3ccn4c(CC5CC5)nnc4c3C(F)(F)F)CC2)c(F)c1` [Co. No. 13], for which the EC50 was 126 nM. For the same compound, under setting [1], the Emax amounted to 278%.

Take `O=c1c(Cl)c(N2CCC(c3ccc(F)cc3F)CC2)ccn1CC1CC1` [Co. No. 14-a]: the “GTPγS-hmGluR2 PAM pEC50” value is 6.92. The Emax under setting [1] turned out to be 259%.

As for `Cc1cc(F)ccc1O[C@@H](C)c1ccn2c(CC3CC3)nnc2c1C(F)(F)F` [Co. No. 14-b, 3-(Cyclopropylmethyl)-7-[(1S)-1-(4-fluoro-2-methylphenoxy)ethyl]-8-(trifluoromethyl)[1,2,4]triazolo[4,3-a]pyridine], under setting [1], the Emax is 281%.

For the compound `O=c1c(Cl)c(N2CCC(c3ccccc3Cl)CC2)ccn1CC1CC1` [Co. No. 15-a], the “GTPγS-hmGluR2 PAM pEC50” value was determined as 7. For the same compound, the Emax under setting [1] stood at 253%.

With `C[C@H](Oc1c(F)cc(F)cc1F)c1ccn2c(CC3CC3)nnc2c1C(F)(F)F` [Co. No. 15-b, 3-(Cyclopropylmethyl)-8-(trifluoromethyl)-7-[(1S)-1-(2,4,6-trifluorophenoxy)ethyl][1,2,4]triazolo[4,3-a]pyridine], the Emax (read-out: GTPγS-hmGluR2 PAM Emax, maximal % effect relative to control glutamate response) was 293%.

As for `O=c1c(Cl)c(N2CCC(c3cccc(C(F)(F)F)c3)CC2)ccn1CC1CC1` [Co. No. 16-a], the “GTPγS-hmGluR2 PAM pEC50” value worked out at 7.12. Under setting [1], the Emax stood at 223%.

For the compound `O=c1c(Cl)c(N2CCC(F)(c3ccccc3)CC2)ccn1CC1CC1` [Co. No. 17-a], the EC50 is 288 nM. Also, the Emax under setting [1] turned out to be 261%.

On to `CC(C)Cn1ccc(N2CCC(c3ccccc3)CC2)c(Cl)c1=O` [Co. No. 19-a], for which the “GTPγS-hmGluR2 PAM pEC50” value worked out at 6.71. Besides, the Emax under setting [1] stood at 240%.

Turning to `O=c1c(Cl)c(N2CCC(OCCF)(c3ccccc3)CC2)ccn1CC1CC1` [Co. No. 20-a], under setting [1], the Emax turned out to be 243%.

`O=c1c(Cl)c(N2CCC(CF)(c3ccccc3)CC2)ccn1CC1CC1` [Co. No. 21-a]: the Emax under setting [1] turned out to be 207%.

`CCCCn1ccc(N2CCC(CO)(c3ccccc3)CC2)c(Cl)c1=O` [Co. No. 22-a]: the Emax under setting [1] was determined as 259%.

Take `CC(C)CCn1ccc(N2CCC(F)(c3ccccc3)CC2)c(Cl)c1=O` [Co. No. 23-a]: the “GTPγS-hmGluR2 PAM pEC50” value came out at 6.58. For the same compound, the Emax under setting [1] is 203%.

Take `CC(C)CCn1ccc(N2CCC(c3ccc(F)cc3F)CC2)c(Cl)c1=O` [Co. No. 24-a]: the “GTPγS-hmGluR2 PAM pEC50” value was found to be 6.91. The Emax under setting [1] was determined as 258%.

With `O=c1c(Cl)c(N2CCC(F)(c3ccccc3)CC2)ccn1CCC1CC1` [Co. No. 26-a], the EC50 is 316 nM. Also, the Emax under setting [1] came out at 248%.

In the case of `CCCCn1ccc(N2CCC(c3ccc(C(C)(C)O)cc3)CC2)c(Cl)c1=O` [Co. No. 27-a], the EC50 is 331 nM. The Emax under setting [1] was 284%.

Regarding `CCCCn1ccc(N2CCC(c3ccccc3C(C)(C)O)CC2)c(Cl)c1=O` [Co. No. 28-a], the EC50 was 110 nM. Besides, the Emax under setting [1] was found to be 297%.

With `CCCCn1ccc(N2CCC(c3ccc(C(C)(C)O)cc3F)CC2)c(Cl)c1=O` [Co. No. 29-a], the EC50 was 107 nM. Under setting [1], the maximal response (Emax) was 317%.

`CCCc1nnc2c(C(F)(F)F)c(C(C)Oc3ccc(F)cc3F)ccn12` (stereo not drawn) [Co. No. 30-b, 7-[1-(2,4-Difluorophenoxy)ethyl]-3-propyl-8-(trifluoromethyl)[1,2,4]triazolo[4,3-a]pyridine]: the Emax under setting [1] was found to be 227%.

As to `CCCCn1ccc(N2CCC3(CC2)OCc2ccccc23)c(Cl)c1=O` [Co. No. 32-a], the EC50 was 219 nM. Moreover, the Emax under setting [1] turned out to be 347%.

For `CCCCn1ccc(N2CCC3(CC2)COc2ccccc23)c(Cl)c1=O` [Co. No. 33-a], the EC50 was 263 nM. Besides, the Emax under setting [1] turned out to be 362%.
